Calls of active or inactive are those of the source. No cut-off for these calls is given here.
How the values were obtained:
Bone marrow cell [1] = assay: Inhibition of osteoclastogenesis in CD1 mouse bone marrow cells at 72 uM added on day 2 and day 4 measured on day 7 by TRAP assay relative to control; format: functional
Bone marrow cell [2] = assay: Inhibition of osteoclastogenesis in CD1 mouse bone marrow cells at 0.1 to 10 ug/ml added on day 2 and day 4 measured on day 7 by TRAP assay; format: functional, cell-based
Bone marrow cell [3] = assay: Inhibition of osteoclastogenesis in CD1 mouse bone marrow cells at 0.01 ug/ml added on day 2 and day 4 measured on day 7 by TRAP assay relative to control; format: functional
Bone marrow cell [4] = assay: Inhibition of osteoclastogenesis in CD1 mouse bone marrow cells at 37 uM added on day 2 and day 4 measured on day 7 by TRAP assay relative to control; format: functional
Bone marrow cell [5] = assay: Inhibition of osteoclastogenesis in CD1 mouse bone marrow cells at 5 ug/ml added on day 2 and day 4 measured on day 7 by TRAP assay relative to GW9508; format: functional, cell-based

SMILES | inhibition at 72 µM (Bone marrow cell [1]) | inhibition (Bone marrow cell [2]) | inhibition at 0.01 µg/mL (Bone marrow cell [3]) | inhibition at 37 µM (Bone marrow cell [4]) | inhibition (Bone marrow cell [5])
O=C(O)CCc1ccc(NCc2cccc(Oc3ccccc3)c2)cc1 [GW9508] | 28.2% | Dose-dependent effect |  |  | 
CCCCCCCCCCC#CCCCCCC(=O)O [OSTEOPROTEGERIN] |  |  | 32.6% |  | 
CCCCCCCCCCCCCOCC(=O)O |  |  |  | 100% | 
CCn1cc(CCCCCCCCCCC(=O)O)nn1 |  | Dose-dependent effect |  | 16.9% | Active
CCCCCn1cc(CCCCCCCC(=O)O)nn1 |  |  |  | 33.8% | 
CCCCCCCCCn1cc(CCCC(=O)O)nn1 |  | Active |  | 22.2% | 
CCCCCCCCCCCn1cc(CC(=O)O)nn1 |  |  |  | 38.8% | 
CCCCCCCCCCCCOCCC(=O)O |  | Dose-dependent effect |  | 80.8% | 
COCCOCCOCCCCCCCC(=O)O |  |  |  | 100% | 
CCCCCOCCCCCCCCCC(=O)O |  | inactive |  | 100% | 
CCCOCCCCCCCCCCCC(=O)O |  | Dose-dependent effect |  | 73.2% | 
CCCCCCCCCCn1cc(CCC(=O)O)nn1 |  | Active |  | 26.7% | 
CCCCCCCn1cc(CCCCCC(=O)O)nn1 |  | Dose-dependent effect |  | 21.5% | Active
CCCCCCCCCOCCCCCC(=O)O |  | inactive |  | 100% | 
CCCCCCOCCCCCCCCC(=O)O |  | inactive |  | 100% | 
CCCCCCCCCCOCCCCC(=O)O |  | Dose-dependent effect |  | 65.4% | 
CCCCCCCCCCCCCCCC(=O)O [PALMITIC ACID] |  | Active |  | 73.8% | Active

From ChEMBL document CHEMBL2396534, “Long-chain triazolyl acids as inhibitors of osteoclastogenesis” (2013)
